# Where a SMILES comes first, the peptide text is derived from it. Bridges are numbered along the chain shown (N, C = ends). Where no end group is shown, it is not given here.
# Biological target: His-tagged recombinant human CD13 (rCD13) (human) (UniProt P15144)
# Test: not given
# Conditions: not given
# Chain of His-tagged recombinant human CD13 (rCD13) (human) (P15144 33-967): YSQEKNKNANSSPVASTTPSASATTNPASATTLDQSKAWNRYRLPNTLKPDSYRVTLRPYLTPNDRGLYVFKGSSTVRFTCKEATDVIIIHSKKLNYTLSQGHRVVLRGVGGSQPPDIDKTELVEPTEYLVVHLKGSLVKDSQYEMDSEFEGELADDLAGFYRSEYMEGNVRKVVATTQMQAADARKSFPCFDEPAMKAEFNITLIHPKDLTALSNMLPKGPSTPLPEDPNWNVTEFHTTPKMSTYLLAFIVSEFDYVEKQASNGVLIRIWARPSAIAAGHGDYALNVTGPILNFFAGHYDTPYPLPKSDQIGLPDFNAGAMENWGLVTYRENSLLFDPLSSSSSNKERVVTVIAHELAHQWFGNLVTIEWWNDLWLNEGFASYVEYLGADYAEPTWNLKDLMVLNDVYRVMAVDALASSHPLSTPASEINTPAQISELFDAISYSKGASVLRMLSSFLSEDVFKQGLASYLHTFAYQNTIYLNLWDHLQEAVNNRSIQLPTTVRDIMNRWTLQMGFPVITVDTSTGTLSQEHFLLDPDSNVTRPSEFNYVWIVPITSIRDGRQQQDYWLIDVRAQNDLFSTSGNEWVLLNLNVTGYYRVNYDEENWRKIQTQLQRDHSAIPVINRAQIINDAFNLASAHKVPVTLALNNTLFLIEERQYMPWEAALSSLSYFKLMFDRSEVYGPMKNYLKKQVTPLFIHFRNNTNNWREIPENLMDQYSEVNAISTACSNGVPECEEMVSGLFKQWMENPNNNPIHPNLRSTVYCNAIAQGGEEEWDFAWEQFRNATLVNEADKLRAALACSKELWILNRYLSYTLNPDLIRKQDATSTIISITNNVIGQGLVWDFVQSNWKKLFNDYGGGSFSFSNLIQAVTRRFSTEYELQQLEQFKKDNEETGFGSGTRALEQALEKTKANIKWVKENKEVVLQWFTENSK
Molecule,"inhibition of rCD13 enzymatic activity, against … (fold loss of activity)",IC50 of inhibition of rCD13 enzymatic activity,"inhibition of rCD13 enzymatic activity, against … (fold decrease)"
GCARRYCSN [… with deletion of Val-1],200,–,–
CARRYCSN [… with deletion of Val-1 and Gly-2],270,–,–

# Further lines, results first:
"inhibition of rCD13 enzymatic activity, against … (fold loss of activity)",IC50 of inhibition of rCD13 enzymatic activity,"inhibition of rCD13 enzymatic activity, against … (fold decrease)",Molecule
–,51 µM,–,CARRYC (disulfide 1-6 (inferred)) [small disulfide-bridged peptide CARRYC]
–,–,3,VGCARRYC [… with deletion of Ser-9 and Asn-10]

# Biological target: T1, recombinant human CD13 (rCD13) (Homo sapiens, UniProt P15144)
# T1 construct: consisting of the CD13 extracellular domain expressed in HEK-293 cells; His-tag; purchased Sino Biological 10051-H08H; host or cells: HEK-293 cells
# T1 sequence (P15144 33-967 limits assumed): as the sequence (P15144 33-967) above
# Test: rCD13 enzyme inhibition assay, L-alanine 7-amido-4-methylcoumarin substrate
# Type: biochemical
# Conditions: 0.1 mM L-alanine 7-amido-4-methylcoumarin, 60 mM Tris-HCl pH 7.4, fluorescence; mean ± SEM of n independent experiments; read-out: IC50: peptide concentration that inhibits 50% of rCD13 enzymatic activity
# Method: (§1) Recombinant CD13 (rCD13) enzyme activity and inhibition assays were performed as described previously using L-alanine-p-nitroanilide or L-alanine 7-amido-4-methylcoumarin as substrates in 60 mM Tris–HCl, pH 7.4, or 60 mM potassium phosphate buffer, pH 7.4. Mixtures containing peptides at various concentrations, rCD13 (0.2 µg/mL), and L-alanine-p-nitroanilide substrate (0.5 mM) in 60 mM potassium phosphate buffer, pH 7.4 (total volume, 0.1 ml) were prepared and left to react for 30 min at 37 °C. The products were then analyzed using a plate reader (iMark Microplate Absorbance Reader; Bio-Rad). Alternatively, the assay was performed using 0.1 mM L-alanine 7-amido-4-methylcoumarin in 60 mM Tris–HCl, pH 7.4, as a substrate. Fluorescence intensity of methylcoumarin was measured on an Infinite 200 PRO plate reader (Tecan) using the following settings: excitation wavelength: 341 nm; emission wavelength: 441 nm; excitation bandwidth: 9; emission bandwidth: 20 nm; gain: 109 manual; number of flashes: 25; integration time: 20 µs; lag time: 0 µs; settle time: 0 ms.
# (§2) The IC50 of each inhibitor was calculated by non-linear regression analysis of inhibition data using GraphPad Prism Software (GraphPad Software, Version 9.00, San Diego, CA). Steady-state enzyme kinetic analyses were performed using various concentrations of L-alanine-p-nitroanilide (0–1.5 mM) and VGCARRYCS peptide (0–900 nM). The initial velocities (Vo) were calculated from the slopes of the first 5 min of reaction. The enzyme inhibitory constant (Ki) was calculated using the competitive enzyme inhibition model in GraphPad Prism Software.
# Fig. 2 G4 recognizes soluble forms of CD13, with higher affinity and selectivity than bestatin, and the membrane forms expressed on the surface of HUVEC cells. A Inhibitory effects of G4 and bestatin on the enzymatic activities of different aminopeptidases (rCD13, APA, and APB). Various amounts of G4 or bestatin were incubated with rCD13 (0.2 µg/mL in 60 mM Tris–HCl pH 7.4), APA (0.2 µg/mL in 60 mM Tris–HCl pH 7.4, 50 mM calcium chloride, 200 mM sodium chloride) or APB (0.2 µg/mL in 60 mM Tris–HCl pH 7.4, 100 mM potassium chloride) and the corresponding substrates at 0.1 mM (L-alanine-7-amido-4-methylcoumarin for rCD13, L-glutamic acid γ-(7-amido-4-methylcoumarin) for APA, and L-arginine-7-amido-4-methylcoumarin for APB). The mixtures were incubated for 30 min at 37 °C, and the cleavage of each substrate was monitored by measuring the fluorescence of methylcoumarin (λex 341 nm; λem 441 nm) using an Infinite 200 PRO plate reader (Tecan). Three independent experiments were performed for each enzyme. The results of one representative experiment for each enzyme are shown (mean ± SEM, duplicates). B Inhibitory effects of G4 and bestatin on soluble CD13 immunocaptured from human serum (sCD13) using microtiter plates coated with anti-CD13 mAb WM15. The microtiter plate was filled with a solution of mAb WM15 (5 μg/ml in DPBS) and incubated overnight at 4 °C. The plate was then washed with DPBS, blocked with 3% bovine serum albumin (BSA) in DPBS, and filled with human serum containing soluble CD13 (diluted 1:2 with DPBS containing 2% BSA). After washing with DPBS, mixtures of G4 or bestatin (0–100 µM in 60 mM Tris–HCl, pH 7.4) and L-alanine p-nitroanilide hydrochloride substrate (4.5 mM in 60 mM Tris–HCl, pH 7.4) were added and left to incubate at 37 °C for 2 h. Substrate cleavage by sCD13 dissociated from mAb WM15 was then monitored by measuring the absorbance at 405 nm in each well using a plate reader (Bio-Rad). The results of one experiment performed in triplicate are shown (mean ± SEM). C Effect of G4 on the binding of the anti-CD13 mAb WM15 to HUVEC. HUVEC were seeded at a density of 2 × 10^5 cells in 100 µL DPBS supplemented with 5% normal human serum (NHS) and incubated with a mixture of G4 peptide (0, 0.1, 1, and 10 µM) and mAb WM15 (0 or 0.13 nM) as indicated. […]
row,Molecule,IC50
1,CC(=O)N[C@H](C(=O)NCC(=O)N[C@H]1CSSC[C@@H](C(=O)N[C@@H](CO)C(=O)N[C@@H](CC(N)=O)C(=O)O)NC(=O)[C@H](Cc2ccc(O)cc2)NC(=O)[C@H](CCCNC(=N)N)NC(=O)[C@H](CCCNC(=N)N)NC(=O)[C@H](C)NC1=O)C(C)C [ac-VGCARRYCSN] (Ac-VGCARRYCSN-OH; disulfide 3-8; C-terminus assumed),> 1000 µM
2,C[C@@H]1NC(=O)[C@@H](NC(=O)CN)CSSC[C@@H](C(=O)N[C@@H](CO)C(=O)N[C@@H](CC(N)=O)C(=O)O)NC(=O)[C@H](Cc2ccc(O)cc2)NC(=O)[C@H](CCCNC(=N)N)NC(=O)[C@H](CCCNC(=N)N)NC1=O [GCARRYCSN] (H-GCARRYCSN-OH; disulfide 2-7),40.1 ± 1.9 µM
3,CC(C)[C@H](N)C(=O)NCC(=O)N[C@H]1CSSC[C@@H](C(=O)O)NC(=O)[C@H](Cc2ccc(O)cc2)NC(=O)[C@H](CCCNC(=N)N)NC(=O)[C@H](CCCNC(=N)N)NC(=O)[C@H](C)NC1=O [VGCARRYC] (H-VGCARRYC-OH; disulfide 3-8),0.23 ± 0.01 µM

# More lines, now with the values ahead:
row,IC50,Molecule
1,69.5 ± 0.1 µM,C[C@@H]1NC(=O)[C@@H](NC(=O)CN)CSSC[C@@H](C(=O)N[C@@H](CO)C(=O)O)NC(=O)[C@H](Cc2ccc(O)cc2)NC(=O)[C@H](CCCNC(=N)N)NC(=O)[C@H](CCCNC(=N)N)NC1=O [GCARRYCS] (H-GCARRYCS-OH; disulfide 2-7)
2,0.19 ± 0.01 µM,CC(C)[C@H](N)C(=O)NCC(=O)N[C@H]1CSSC[C@@H](C(=O)N[C@@H](CO)C(=O)N[C@@H](CC(N)=O)C(=O)O)NC(=O)[C@H](Cc2ccc(O)cc2)NC(=O)[C@H](CCCNC(=N)N)NC(=O)[C@H](CCCNC(=N)N)NC(=O)[C@H](C)NC1=O [VGCARRYCSN] (H-VGCARRYCSN-OH; disulfide 3-8)

# Biological target: T1, recombinant human CD13 (rCD13)
# Test: rCD13 enzyme inhibition assay, L-alanine-p-nitroanilide substrate
# Type: biochemical
# Conditions: negative control peptide; rCD13 0.2 µg/ml, L-alanine-p-nitroanilide, Supplementary Fig. S2A
# Method: as §1, §2
# A) VGCGRRYCSN and CSGIGSSGGC (control) peptides, at various concentrations, were mixed with rCD13 (0.2 µg/mL), L-alanine-p-nitroanilide substrate (0.5 mM), in 60 mM potassium phosphate buffer, pH 7.4. The mixtures were left to react for 30 min at 37° C; then the absorbance at 405 nm of each mixture was measured using an ELISA plate reader (Bio-Rad). The IC50 of each inhibitor was calculated by non-linear regression analysis of inhibition data using the GraphPad Prism Software (GraphPad Software, Version 9.00, San Diego, CA). The result of one experiment performed in duplicate is shown (mean ± SEM).
row,Inhibition of rCD13 enzymatic activity (in words),Molecule
1,no inhibition,"CSGIGSGGC [negative control peptide, reference compound]"

# Same assay, conditions: rCD13 0.2 μg/mL, L-alanine-p-nitroanilide 0.5 mM, 60 mM potassium phosphate buffer pH 7.4, 30 min, 37 °C, absorbance; mean ± SEM of n independent experiments; read-out: IC50: peptide concentration that inhibits 50% of rCD13 enzymatic activity
row,Molecule,IC50
1,CC(C)[C@H](N)C(=O)N[C@@H](C)C(=O)N[C@H]1CSSC[C@@H](C(=O)N[C@@H](CO)C(=O)N[C@@H](CC(N)=O)C(=O)O)NC(=O)[C@H](Cc2ccc(O)cc2)NC(=O)[C@H](CCCNC(=N)N)NC(=O)[C@H](CCCNC(=N)N)NC(=O)CNC1=O [VACGRRYCSN] (H-VACGRRYCSN-OH; disulfide 3-8),4.5 ± 5.1 µM
2,VGAGRRYASN [VGAGRRYASN],6.2 ± 4.8 µM
3,C[C@H](N)C(=O)NCC(=O)N[C@H]1CSSC[C@@H](C(=O)N[C@@H](CO)C(=O)N[C@@H](CC(N)=O)C(=O)O)NC(=O)[C@H](Cc2ccc(O)cc2)NC(=O)[C@H](CCCNC(=N)N)NC(=O)[C@H](CCCNC(=N)N)NC(=O)CNC1=O [AGCGRRYCSN] (H-AGCGRRYCSN-OH; disulfide 3-8),11.4 ± 4.5 µM
4,CC(C)[C@H](N)C(=O)NCC(=O)N[C@H]1CSSC[C@@H](C(=O)N[C@@H](CO)C(=O)N[C@@H](CC(N)=O)C(=O)O)NC(=O)[C@H](Cc2ccc(O)cc2)NC(=O)[C@H](CCCNC(=N)N)NC(=O)[C@H](C)NC(=O)CNC1=O [VGCGARYCSN] (H-VGCGARYCSN-OH; disulfide 3-8),12.1 ± 8.4 µM
5,CC(C)[C@H](N)C(=O)NCC(=O)N[C@H]1CSSC[C@@H](C(=O)N[C@@H](CO)C(=O)N[C@@H](CC(N)=O)C(=O)O)NC(=O)[C@H](Cc2ccc(O)cc2)NC(=O)[C@H](CCCNC(=N)N)NC(=O)[C@H](CCCNC(=N)N)NC(=O)CNC1=O [VGCGRRYCSN] (H-VGCGRRYCSN-OH; disulfide 3-8),2.01 ± 1.1 µM

# Results, then the molecule that gave them:
row,IC50,Molecule
1,8.9 ± 5.5 µM,CC(C)[C@H](N)C(=O)NCC(=O)N[C@H]1CSSC[C@@H](C(=O)N[C@@H](CO)C(=O)N[C@@H](CC(N)=O)C(=O)O)NC(=O)[C@H](C)NC(=O)[C@H](CCCNC(=N)N)NC(=O)[C@H](CCCNC(=N)N)NC(=O)CNC1=O [VGCGRRACSN] (H-VGCGRRACSN-OH; disulfide 3-8)
2,17.6 ± 4.6 µM,CC(C)[C@H](N)C(=O)NCC(=O)N[C@H]1CSSC[C@@H](C(=O)N[C@@H](CO)C(=O)N[C@@H](CC(N)=O)C(=O)O)NC(=O)[C@H](Cc2ccc(O)cc2)NC(=O)[C@H](C)NC(=O)[C@H](CCCNC(=N)N)NC(=O)CNC1=O [VGCGRAYCSN] (H-VGCGRAYCSN-OH; disulfide 3-8)
3,0.2 ± 0.06 µM,CC(C)[C@H](N)C(=O)NCC(=O)N[C@H]1CSSC[C@@H](C(=O)N[C@@H](CO)C(=O)N[C@@H](CC(N)=O)C(=O)O)NC(=O)[C@H](Cc2ccc(O)cc2)NC(=O)[C@H](CCCNC(=N)N)NC(=O)[C@H](CCCNC(=N)N)NC(=O)[C@H](C)NC1=O [VGCARRYCSN] (H-VGCARRYCSN-OH; disulfide 3-8)

# — PMC10827914 (Cellular and Molecular Life Sciences: CMLS, 2024)
